Test results as given in PubChem BioAssay AID2060501 (Molecular Pharmacology Branch, DTP, NCI, 2025).
pIC50: −log10 of the molar value.

System: 282377-053-R-J1-PDC complex spheroids, viability
Test: Anticancer human tumor 282377-053-R-J1-PDC patient-derived colon adenocarcinoma cell line growth inhibition [GQUAD]
Conditions: for pIC50: curve of first compound; for viability, T/C: stronger effect = lower value
In short: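 Viability of tumor cells grown as complex spheroids with endothelial and stromal cells, exposed to drug combinations. Top concentration at or near clinical Cmax (else 10 microM), diluted in half-log increments.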

[1] = second compound 0.0316 µM, first compound 0.0316 µM
[2] = second compound 0.0316 µM, first compound 0.1 µM
[3] = second compound 0.0316 µM, first compound 0.316 µM
[4] = second compound 0.0316 µM, first compound 1 µM
[5] = second compound 0.0316 µM, first compound 3.16 µM
[6] = second compound 0.0316 µM, first compound 10 µM
[7] = second compound 0.1 µM, first compound 0.0316 µM
[8] = second compound 0.1 µM, first compound 0.1 µM
[9] = second compound 0.1 µM, first compound 0.316 µM
[10] = second compound 0.1 µM, first compound 1 µM
[11] = second compound 0.1 µM, first compound 3.16 µM
[12] = second compound 0.1 µM, first compound 10 µM
[13] = second compound 0.316 µM, first compound 0.0316 µM
[14] = second compound 0.316 µM, first compound 0.1 µM
[15] = second compound 0.316 µM, first compound 0.316 µM
[16] = second compound 0.316 µM, first compound 1 µM
[17] = second compound 0.316 µM, first compound 3.16 µM
[18] = second compound 0.316 µM, first compound 10 µM
[19] = second compound 1 µM, first compound 0.0316 µM
[20] = second compound 1 µM, first compound 0.1 µM
[21] = second compound 1 µM, first compound 0.316 µM
[22] = second compound 1 µM, first compound 1 µM
[23] = second compound 1 µM, first compound 3.16 µM
[24] = second compound 1 µM, first compound 10 µM
[25] = second compound 3.16 µM, first compound 0.0316 µM
[26] = second compound 3.16 µM, first compound 0.1 µM
[27] = second compound 3.16 µM, first compound 0.316 µM
[28] = second compound 3.16 µM, first compound 1 µM
[29] = second compound 3.16 µM, first compound 3.16 µM
[30] = second compound 3.16 µM, first compound 10 µM
[31] = second compound 10 µM, first compound 0.0316 µM
[32] = second compound 10 µM, first compound 0.1 µM
[33] = second compound 10 µM, first compound 0.316 µM
[34] = second compound 10 µM, first compound 1 µM
[35] = second compound 10 µM, first compound 3.16 µM
[36] = second compound 10 µM, first compound 10 µM
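Also: spheroids exposed to compounds for 7 days before readout.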
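For viability, T/C in this document: percent of vehicle DMSO control viability with 100% = untreated-like growth.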

C=CCn1c(=O)c2cnc(Nc3ccc(N4CCN(C)CC4)cc3)nc2n1-c1cccc(C(C)(C)O)n1 + Cc1[nH]c2ccc(F)cc2c1-c1nc2c3cccnc3c3ncccc3c2[nH]1
pIC50 (second compound 0.0316 µM): 5.37
pIC50 (second compound 0.1 µM): 5.45
pIC50 (second compound 0.316 µM): 5.49
pIC50 (second compound 1 µM): 5.71
pIC50 (second compound 3.16 µM): 7.35
pIC50 (second compound 10 µM): > 7.50
viability, T/C [1]: 101%
viability, T/C [2]: 61.7%
viability, T/C [3]: 95%
viability, T/C [4]: 73.2%
viability, T/C [5]: 63.7%
viability, T/C [6]: 15.3%
viability, T/C [7]: 80.2%
viability, T/C [8]: 65.2%
viability, T/C [9]: 79.8%
viability, T/C [10]: 62.2%
viability, T/C [11]: 56.5%
viability, T/C [12]: 12.7%
viability, T/C [13]: 91.6%
viability, T/C [14]: 70.5%
viability, T/C [15]: 77.7%
viability, T/C [16]: 70%
viability, T/C [17]: 51.4%
viability, T/C [18]: 12.8%
viability, T/C [19]: 84.5%
viability, T/C [20]: 71%
viability, T/C [21]: 72.6%
viability, T/C [22]: 59.5%
viability, T/C [23]: 44.3%
viability, T/C [24]: 11%
viability, T/C [25]: 50.3%
viability, T/C [26]: 49.1%
viability, T/C [27]: 24%
viability, T/C [28]: 16.9%
viability, T/C [29]: 12.7%
viability, T/C [30]: 2.18%
viability, T/C [31]: 20.7%
viability, T/C [32]: 41.4%
viability, T/C [33]: 16.9%
viability, T/C [34]: 11.4%
viability, T/C [35]: 7.59%
viability, T/C [36]: 1.56%

COc1ncnc(C2CC2)c1-c1ncc2cnn(Cc3ccc(-c4nc(C(F)(F)F)cn4C(C)C)cc3)c2n1 + Cc1[nH]c2ccc(F)cc2c1-c1nc2c3cccnc3c3ncccc3c2[nH]1
pIC50 (second compound 0.0316 µM): 5.24
pIC50 (second compound 0.1 µM): 5.23
pIC50 (second compound 0.316 µM): 5.23
pIC50 (second compound 1 µM): 5.26
pIC50 (second compound 3.16 µM): 5.38
pIC50 (second compound 10 µM): 5.47
viability, T/C [1]: 97.6%
viability, T/C [2]: 103%
viability, T/C [3]: 91.9%
viability, T/C [4]: 99.4%
viability, T/C [5]: 97.1%
viability, T/C [6]: 5.07%
viability, T/C [7]: 88.5%
viability, T/C [8]: 107%
viability, T/C [9]: 114%
viability, T/C [10]: 110%
viability, T/C [11]: 101%
viability, T/C [12]: 7.94%
viability, T/C [13]: 103%
viability, T/C [14]: 88.3%
viability, T/C [15]: 111%
viability, T/C [16]: 117%
viability, T/C [17]: 96.3%
viability, T/C [18]: 10.5%
viability, T/C [19]: 97.1%
viability, T/C [20]: 97.2%
viability, T/C [21]: 113%
viability, T/C [22]: 115%
viability, T/C [23]: 89.5%
viability, T/C [24]: 6.2%
viability, T/C [25]: 85.5%
viability, T/C [26]: 79.5%
viability, T/C [27]: 93.2%
viability, T/C [28]: 82.6%
viability, T/C [29]: 63.2%
viability, T/C [30]: 6.71%
viability, T/C [31]: 48.1%
viability, T/C [32]: 30.1%
viability, T/C [33]: 76.9%
viability, T/C [34]: 54.2%
viability, T/C [35]: 53.4%
viability, T/C [36]: 5.55%

Cc1[nH]c2ccccc2c1CCNCc1ccc(/C=C/C(=O)NO)cc1 + Cc1[nH]c2ccc(F)cc2c1-c1nc2c3cccnc3c3ncccc3c2[nH]1
pIC50 (second compound 0.0316 µM): < 6.50
pIC50 (second compound 0.1 µM): < 6.50
pIC50 (second compound 0.316 µM): < 6.50
pIC50 (second compound 1 µM): < 6.50
pIC50 (second compound 3.16 µM): 6.71
pIC50 (second compound 10 µM): > 9.00
viability, T/C (second compound 0.0316 µM, first compound 0.000999 µM): 87.8%
viability, T/C (second compound 0.0316 µM, first compound 0.00316 µM): 100%
viability, T/C (second compound 0.0316 µM, first compound 0.00999 µM): 105%
viability, T/C [1]: 90.3%
viability, T/C (second compound 0.0316 µM, first compound 0.0999 µM): 93%
viability, T/C [3]: 96.8%
viability, T/C (second compound 0.1 µM, first compound 0.000999 µM): 97.4%
viability, T/C (second compound 0.1 µM, first compound 0.00316 µM): 98.9%
viability, T/C (second compound 0.1 µM, first compound 0.00999 µM): 79.9%
viability, T/C [7]: 89.9%
viability, T/C (second compound 0.1 µM, first compound 0.0999 µM): 74.6%
viability, T/C [9]: 70.7%
viability, T/C (second compound 0.316 µM, first compound 0.000999 µM): 102%
viability, T/C (second compound 0.316 µM, first compound 0.00316 µM): 106%
viability, T/C (second compound 0.316 µM, first compound 0.00999 µM): 74.6%
viability, T/C [13]: 97.4%
viability, T/C (second compound 0.316 µM, first compound 0.0999 µM): 97.8%
viability, T/C [15]: 96.1%
viability, T/C (second compound 1 µM, first compound 0.000999 µM): 116%
viability, T/C (second compound 1 µM, first compound 0.00316 µM): 95.8%
viability, T/C (second compound 1 µM, first compound 0.00999 µM): 93.8%
viability, T/C [19]: 101%
viability, T/C (second compound 1 µM, first compound 0.0999 µM): 87.9%
viability, T/C [21]: 88.1%
viability, T/C (second compound 3.16 µM, first compound 0.000999 µM): 70.8%
viability, T/C (second compound 3.16 µM, first compound 0.00316 µM): 75.7%
viability, T/C (second compound 3.16 µM, first compound 0.00999 µM): 60.9%
viability, T/C [25]: 66.2%
viability, T/C (second compound 3.16 µM, first compound 0.0999 µM): 67.1%
viability, T/C [27]: 38.1%
viability, T/C (second compound 10 µM, first compound 0.000999 µM): 32.5%
viability, T/C (second compound 10 µM, first compound 0.00316 µM): 33.9%
viability, T/C (second compound 10 µM, first compound 0.00999 µM): 52.2%
viability, T/C [31]: 34.4%
viability, T/C (second compound 10 µM, first compound 0.0999 µM): 22.3%
viability, T/C [33]: 25.2%
